The values below come from patent US10865222B2, “Neisseria gonorrhoeae therapeutic based on CMP-nonulosonate sugars” (priority 2014, dated 2020).

Series [1] is classed as physicochemical. From the text: Importantly, Neu5Ac9Az/Neu5Ac9Ac and Leg5Ac7Ac differ from Neu5Ac at carbon 9 and carbons 7 and 9, respectively. As well, Neu5Gc8Me differs from Neu5Gc at carbon 8. As such, carbons 7, 8 and 9 within the exocyclic moiety of nonulosonate sugars appear to play a critical role in the avoidance of serum mediated killing by N. gonorrhoeae, as evidenced by the enhanced serum-mediated killing with CMP-Neu5Ac9Az, CMP-Neu5Ac9Ac, CMP-Leg5Ac7Ac and CMP-Neu5Gc8Me, that was not observed with either CMP-Neu5Ac or CMP-Neu5Gc only feeding controls.

Another series has as its system Ng F62 (wildtype [WT]). The experiment in a line: BALB/c vaginal colonization model, Ng F62. The class given is in vivo, N. gonorrhoeae. The settings on record: 10 μg intravaginally daily. As for the experimental part: FIG. 13. […] A and B. Efficacy of CMP-Leg5Ac7Ac against Ng F62. 17β-estradiol treated BALB/c mice were infected with i) Ng F62 (wildtype [WT]) and treated (CMP-Leg5Ac7Ac, 10 μg intravaginally, daily), ii) Ng F62 WT→saline (No treatment) or iii) Ng F62 Δlst (cannot sialylate LOS), untreated. Ng load in the vagina was enumerated daily. A. Time to clearance. B. Area under the curve (AUC; each point represents the AUC of CFU vs. time for each mouse). Horizontal bar, geometric mean. C and D. Efficacy of CMP-Leg5Ac7Ac vs ceftriaxone-resistant isolate H041. Time to clearance (C) and AUC analysis (D) are described above.
The efficacy of CMP-Leg5Ac7Ac against Ng was tested in the BALB/c vaginal colonization model (FIG. 13) (51). Three groups of 17β-estradiol treated BALB/c mice (10 mice/group) were infected as follows: i) WT F62→CMP-Leg5Ac7Ac (10 μg intravaginally daily), ii) WT F62→saline control (‘untreated’) and iii) F62 List (cannot sialylate LOS)→untreated.

On to `CC(=O)N[C@H]1[C@H]([C@H](O)[C@H](O)COC(C)=O)OC(OP(=O)(O)OC[C@H]2O[C@@H](n3ccc(N)nc3=O)[C@H](O)[C@@H]2O)(C(=O)O)C[C@@H]1O` (stereo partly drawn) [CMP-Neu5Ac9Ac, CMP-5-acetamido-9-O-acetyl-3,5-dideoxy-D-glycero-D-galacto-nonulosonic acid], for which the “stability of the preparation” value in series [1] is “spontaneous breakdown of the 9OAc group”.

As to “5,7-diacetamido-3,5,7,9-tetradeoxy-D-glycero-D-galacto-nonulosonic acid [CMP-Leg5Ac7Ac]”, the “Ng infection (time to clearance, AUC of CFU vs. time)” value with Ng F62 (wildtype [WT]) (17β-estradiol treated BALB/c mice, vs saline) is “significantly attenuated Ng infection”. For the same compound, the “sensitivity to human complement of bacteria recovered directly from treated mice” value in the series on Ng F62 (wildtype [WT]) (BALB/c mice, not shown) was “became sensitive to human complement”.
